Source: PubChem BioAssay (NCI)
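Test compounds were applied to cells in 96-well plates for 48 hours at 5 doses. Here, GI50 denotes the concentration required for 50% inhibition of growth. TGI denotes the concentration required for complete inhibition of growth.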

Key:
Assay in all cases: DTP human tumour cell line panel, 48 h
[1] = test system: SW-620 colon
[2] = test system: U251 CNS
[3] = test system: MDA-MB-435
[4] = test system: SK-MEL-28 melanoma
[5] = test system: OVCAR-8 ovarian
[6] = test system: KM12 colon
[7] = test system: HOP-62 NSCLC
[8] = test system: IGROV1 ovarian
[9] = test system: CCRF-CEM leukemia
[10] = test system: SNB-75 CNS
[11] = test system: EKVX NSCLC
[12] = test system: SK-MEL-2 melanoma
[13] = test system: DU-145 prostate
[14] = test system: MOLT-4 leukemia
[15] = test system: LOX IMVI melanoma
[16] = test system: HL-60(TB) leukemia
[17] = test system: SF-268 CNS
[18] = test system: HS 578T breast
[19] = test system: 786-0 renal
[20] = test system: HT29 colon
[21] = test system: SF-539 CNS
[22] = test system: OVCAR-3 ovarian
[23] = test system: OVCAR-4 ovarian
[24] = test system: UO-31 renal
[25] = test system: SN12C renal
[26] = test system: RXF 393 renal
[27] = test system: ACHN renal
[28] = test system: A549 NSCLC
[29] = test system: SR leukemia
[30] = test system: MDA-MB-231 breast
[31] = test system: NCI-H460 lung
[32] = test system: NCI-H226 lung
[33] = test system: HCT-15 colon
[34] = test system: BT-549 breast
[35] = test system: CAKI-1 renal
[36] = test system: HCT-116 colon
[37] = test system: TK-10 renal
[38] = test system: UACC-62 melanoma
[39] = test system: M14 melanoma
[40] = test system: NCI-H522 lung
[41] = test system: RPMI-8226 leukemia
[42] = test system: A498 renal
[43] = test system: PC-3 prostate
[44] = test system: SF-295 CNS
[45] = test system: K-562 leukemia
[46] = test system: HOP-92 NSCLC
[47] = test system: SK-MEL-5 melanoma
[48] = test system: UACC-257 melanoma
[49] = test system: MCF7 breast

`COc1ccc(CN2C(=O)C(Cl)=C(Nc3cccc(O)c3)C2=O)cc1` was tested. Which GI50 [1] did it give?
The GI50 was 4.69 µM.

And the TGI [1]?
The TGI was > 100 µM.

What about the GI50 [2] of the same compound?
The GI50 was 5.05 µM.

What about the TGI [2] of the same compound?
The TGI was 21.1 µM.

And the GI50 [3]?
Its GI50 is 0.269 µM.

And the TGI [3]?
Its TGI is 1.7 µM.

What about the GI50 [4] of the same compound?
Its GI50 is 13.3 µM.

What about the TGI [4] of the same compound?
The TGI was > 100 µM.

What about the GI50 [5] of the same compound?
Its GI50 is 2.99 µM.

And the TGI [5]?
The TGI was 15 µM.

What about the GI50 [6] of the same compound?
Its GI50 is 0.801 µM.

What about the TGI [6] of the same compound?
Its TGI is 21.6 µM.

What about the GI50 [7] of the same compound?
The GI50 was 8.61 µM.

What about the TGI [7] of the same compound?
The TGI was > 100 µM.

And the GI50 [8]?
The GI50 was 0.591 µM.

What about the TGI [8] of the same compound?
Its TGI is 15.2 µM.

And the GI50 [9]?
Its GI50 is 0.748 µM.

What about the TGI [9] of the same compound?
The TGI was 20.9 µM.

What about the GI50 [10] of the same compound?
The GI50 was 6.73 µM.

What about the TGI [10] of the same compound?
Its TGI is > 100 µM.

What about the GI50 [11] of the same compound?
The GI50 was 21.5 µM.

What about the TGI [11] of the same compound?
The TGI was 56 µM.

What about the GI50 [12] of the same compound?
The GI50 was 4.16 µM.

What about the TGI [12] of the same compound?
The TGI was 24.5 µM.

And the GI50 [13]?
The GI50 was 13.8 µM.

And the TGI [13]?
The TGI was 33 µM.

And the GI50 [14]?
Its GI50 is 0.501 µM.

What about the TGI [14] of the same compound?
Its TGI is 10.5 µM.

What about the GI50 [15] of the same compound?
Its GI50 is 5.7 µM.

What about the TGI [15] of the same compound?
The TGI was 23 µM.

What about the GI50 [16] of the same compound?
The GI50 was 1.29 µM.

And the TGI [16]?
The TGI was 7.49 µM.

And the GI50 [17]?
The GI50 was 17.2 µM.

What about the TGI [17] of the same compound?
Its TGI is 45.8 µM.

What about the GI50 [18] of the same compound?
The GI50 was 9.62 µM.

And the TGI [18]?
Its TGI is 51.7 µM.

What about the GI50 [19] of the same compound?
Its GI50 is 4.23 µM.

And the TGI [19]?
The TGI was > 100 µM.

What about the GI50 [20] of the same compound?
Its GI50 is 18 µM.

What about the TGI [20] of the same compound?
Its TGI is > 100 µM.

What about the GI50 [21] of the same compound?
The GI50 was 4.24 µM.

What about the TGI [21] of the same compound?
Its TGI is 15.9 µM.

And the GI50 [22]?
The GI50 was 1.73 µM.

And the TGI [22]?
Its TGI is 23.5 µM.

What about the GI50 [23] of the same compound?
Its GI50 is 45.1 µM.

And the TGI [23]?
Its TGI is > 100 µM.

And the GI50 [24]?
The GI50 was 6.91 µM.

What about the TGI [24] of the same compound?
Its TGI is 95.1 µM.

And the GI50 [25]?
Its GI50 is 4.03 µM.

And the TGI [25]?
The TGI was 20.1 µM.

And the GI50 [26]?
Its GI50 is 2.16 µM.

What about the TGI [26] of the same compound?
Its TGI is 11.3 µM.

And the GI50 [27]?
Its GI50 is 10.9 µM.

And the TGI [27]?
The TGI was 57.3 µM.

And the GI50 [28]?
Its GI50 is 3.15 µM.

And the TGI [28]?
The TGI was 20.5 µM.

What about the GI50 [29] of the same compound?
The GI50 was 0.185 µM.

What about the TGI [29] of the same compound?
The TGI was 0.465 µM.

What about the GI50 [30] of the same compound?
The GI50 was 6.43 µM.

And the TGI [30]?
The TGI was > 100 µM.

And the GI50 [31]?
Its GI50 is 14.6 µM.

What about the TGI [31] of the same compound?
The TGI was 31.6 µM.

And the GI50 [32]?
Its GI50 is 6.44 µM.

What about the TGI [32] of the same compound?
Its TGI is 50.5 µM.

And the GI50 [33]?
Its GI50 is 2.05 µM.

And the TGI [33]?
The TGI was 21.4 µM.

What about the GI50 [34] of the same compound?
The GI50 was 13.7 µM.

What about the TGI [34] of the same compound?
Its TGI is 45.4 µM.

What about the GI50 [35] of the same compound?
The GI50 was 1.68 µM.

And the TGI [35]?
Its TGI is 21.3 µM.

And the GI50 [36]?
The GI50 was 1.14 µM.

What about the TGI [36] of the same compound?
The TGI was 19.8 µM.

What about the GI50 [37] of the same compound?
The GI50 was 3.77 µM.

What about the TGI [37] of the same compound?
The TGI was 37 µM.

And the GI50 [38]?
The GI50 was 2.83 µM.

And the TGI [38]?
Its TGI is 21.1 µM.

What about the GI50 [39] of the same compound?
Its GI50 is 5.63 µM.

What about the TGI [39] of the same compound?
Its TGI is 75.7 µM.

And the GI50 [40]?
The GI50 was 2.31 µM.

And the TGI [40]?
Its TGI is 17.6 µM.

What about the GI50 [41] of the same compound?
The GI50 was 0.807 µM.

And the TGI [41]?
Its TGI is 11.7 µM.

And the GI50 [42]?
Its GI50 is 14.2 µM.

And the TGI [42]?
Its TGI is 35.7 µM.

And the GI50 [43]?
Its GI50 is 4.39 µM.

And the TGI [43]?
The TGI was 36.1 µM.

What about the GI50 [44] of the same compound?
The GI50 was 2.75 µM.

What about the TGI [44] of the same compound?
Its TGI is 31.2 µM.

What about the GI50 [45] of the same compound?
The GI50 was 0.349 µM.

What about the TGI [45] of the same compound?
The TGI was 9.13 µM.

What about the GI50 [46] of the same compound?
The GI50 was 12.1 µM.

And the TGI [46]?
The TGI was 59.6 µM.

What about the GI50 [47] of the same compound?
The GI50 was 3.78 µM.

What about the TGI [47] of the same compound?
The TGI was 17.7 µM.

And the GI50 [48]?
Its GI50 is 5.64 µM.

And the TGI [48]?
The TGI was 19.2 µM.

What about the GI50 [49] of the same compound?
The GI50 was 3.64 µM.

What about the TGI [49] of the same compound?
The TGI was 15.6 µM.
